The text below walks through data of patent publication US6506780B2, “Benzophenones and sulfones as inhibitors of glycine uptake” (Pfizer Inc., priority 2000, dated 2003).

SMILES strings stand for the structures. Counter-ions that a name gives are not always drawn.

The first data set has as its system NMDA receptor. The note with it: effect blocked by a specific NMDA-site antagonist and a glycine-site antagonist; cited from earlier work.
Turning to `CN(CCC(Oc1ccc(-c2ccccc2)cc1)c1ccc(F)cc1)CC(=O)O` (stereo not shown) [NFPS], the “post synaptic current driven by the NMDA receptor” value is on record as “increased the post synaptic current driven by the NMDA receptor”.

System in another data set: not given
Conditions: not given
For `CN(CCC(Oc1ccc(C(=O)c2ccncc2)cc1)c1ccc(F)cc1)CC(=O)O` (stereo not shown) (as salt: salt), the melting point (in general, the temperature of the solid-liquid transition) fell in the range of 52 to 65 °C.
`Cc1ccc(C(=O)c2ccc(OC(CCN(C)CC(=O)O)c3ccc(F)cc3)cc2)nc1` (stereo not shown) gave a melting point of 55 to 65 °C.
Still for that read-out and setting: the figure for `Cc1cccc(C(=O)c2ccc(OC(CCN(C)CC(=O)O)c3ccc(Cl)cc3)cc2)c1C` (stereo not shown) (as salt: salt) is 85 to 93 °C.
Still for that read-out and setting: next, `Cc1ccc(C(=O)c2ccc(OC(CCN(C)CC(=O)O)c3ccc(Cl)cc3)cc2)cc1` (stereo not shown) (as salt: salt): 65 to 71 °C; `CN(CCC(Oc1ccc(C(=O)c2ccccc2)cc1)c1ccc(F)cc1)CC(=O)O` (stereo not shown) (as salt: salt): 80 to 95 °C; `CN(CCC(Oc1ccc(C(=O)c2ccsc2)cc1)c1ccc(Cl)cc1)CC(=O)O` (stereo not shown) (as salt: salt): 91 to 110 °C.
As for `CN(CCC(Oc1cccc(C(=O)c2ccncc2)c1)c1ccc(Cl)cc1)CC(=O)O` (stereo not shown), the melting point was 68 to 78 °C.
On the same count and under the same terms, next, `Cc1cccc(C(=O)c2ccc(OC(CCN(C)CC(=O)O)c3ccc(F)cc3)cc2)c1C` (stereo not shown) (as salt: salt): 83 to 93 °C; `CN(CCC(Oc1ccc(C(=O)c2ccc(C(F)(F)F)cc2)cc1)c1ccccc1)CC(=O)O` (stereo not shown) (as salt: salt): 65 to 83 °C; `CN(CCC(Oc1ccc(C(=O)c2ccc(Cl)cc2)cc1)c1ccc(F)cc1)CC(=O)O` (stereo not shown) (as salt: salt): 71 to 85 °C.
Still for that read-out and setting: next, `CN(CCC(Oc1ccc(C(=O)c2cc3ccccc3s2)cc1)c1ccc(F)cc1)CC(=O)O` (stereo not shown) (as salt: salt): 90 to 100 °C; `CN(CCC(Oc1ccc(C(=O)c2nccs2)cc1)c1ccc(F)cc1)CC(=O)O` (stereo not shown) (as salt: salt): 98 to 108 °C; `CN(CCC(Oc1ccc(C(=O)c2ccccn2)cc1)c1ccc(F)cc1)CC(=O)O` (stereo not shown) (as salt: salt): 68 to 80 °C.
On the same count and under the same terms, next, `CN(CCC(Oc1ccc(C(=O)c2ccccc2F)cc1)c1ccc(Cl)cc1)CC(=O)O` (stereo not shown) (as salt: salt): 75 to 85 °C.
`CN(CCC(Oc1ccc(S(=O)(=O)c2ccccc2)cc1)c1ccccc1)CC(=O)O` (stereo not shown) (as salt: salt) had a melting point of 95 to 100 °C.
Same read-out and setting: next, `Cc1ccc(C(=O)c2ccc(OC(CCN(C)CC(=O)O)c3ccccc3)cc2)cc1` (stereo not shown) (as salt: salt): 85 to 95 °C.
The molecule `Cc1cnc(C(=O)c2ccc(OC(CCN(C)CC(=O)O)c3ccc(F)cc3)cc2)s1` (stereo not shown) (as salt: salt) came in with a melting point of 95 to 110 °C.
For `CN(CCC(Oc1ccc(C(=O)c2ccc3ccccc3c2)cc1)c1ccc(F)cc1)CC(=O)O` (stereo not shown) (as salt: salt), the melting point was in the range of 87 to 97 °C.
Take `CN(CCC(Oc1ccc(C(=O)c2ccc(C(F)(F)F)cc2)cc1)c1ccc(F)cc1)CC(=O)O` (stereo not shown) (as salt: salt): the melting point fell in the range of 58 to 72 °C.
Same read-out and setting: next, `CN(CCC(Oc1ccc(C(=O)c2ccccc2F)cc1)c1ccc(F)cc1)CC(=O)O` (stereo not shown) (as salt: salt): 65 to 75 °C; `Cc1cccc(C(=O)c2ccc(OC(CCN(C)CC(=O)O)c3ccc(F)cc3)cc2)c1` (stereo not shown) (as salt: salt): 75 to 85 °C.
Same read-out and setting: next, `CC(C)c1ccc(C(=O)c2ccc(OC(CCN(C)CC(=O)O)c3ccc(F)cc3)cc2)cc1` (stereo not shown) (as salt: salt): 70 to 80 °C.
On the same count and under the same terms, the figure for `Cc1cccnc1C(=O)c1ccc(OC(CCN(C)CC(=O)O)c2ccc(F)cc2)cc1` (stereo not shown) (as salt: salt) is 65 to 73 °C; for `CN(CCC(Oc1ccc(C(=O)c2c(F)cccc2F)cc1)c1ccc(F)cc1)CC(=O)O` (stereo not shown) (as salt: salt) it is 77 to 87 °C; for `CN(CCC(Oc1cccc(C(=O)c2ccncc2)c1)c1ccc(F)cc1)CC(=O)O` (stereo not shown) it is 60 to 70 °C.
The molecule `Cc1ccc(C(=O)c2ccc(OC(CCN(C)CC(=O)O)c3ccc(F)cc3)cc2)cc1` (stereo not shown) (as salt: salt) had a melting point of 60 to 70 °C.
`CN(CCC(Oc1ccc(C(=O)c2ccc3ccccc3c2)cc1)c1ccccc1)CC(=O)O` (stereo not shown) (as salt: salt) gave a melting point of 77 to 89 °C.
As for `COc1ccc(C(=O)c2ccc(OC(CCN(C)CC(=O)O)c3ccc(F)cc3)cc2)cc1` (stereo not shown) (as salt: salt), the melting point lay within 75 to 85 °C.
`CN(CCC(Oc1ccc(C(=O)c2ccc(C(F)(F)F)cc2)cc1)c1ccc(Cl)cc1)CC(=O)O` (stereo not shown) (as salt: salt) yielded a melting point of 63 to 70 °C.
The molecule `CN(CCC(Oc1ccc(C(=O)c2ccc(F)cc2F)cc1)c1ccc(F)cc1)CC(=O)O` (stereo not shown) (as salt: salt) yielded a melting point of 65 to 75 °C.
On the same count and under the same terms, next, `CN(CCC(Oc1ccc(C(=O)c2ccc(F)cc2)cc1)c1ccccc1)CC(=O)O` (stereo not shown) (as salt: salt): 65 to 83 °C; `CN(CCC(Oc1ccc(C(=O)c2cccc3ccccc23)cc1)c1ccc(F)cc1)CC(=O)O` (stereo not shown) (as salt: salt): 91 to 100 °C; `Cc1cnc(C(=O)c2ccc(OC(CCN(C)CC(=O)O)c3ccc(Cl)cc3)cc2)s1` (stereo not shown) (as salt: salt): 182 to 192 °C.
On the same count and under the same terms, next, `CN(CCC(Oc1ccc(C(=O)c2nc3ccccc3s2)cc1)c1ccc(F)cc1)CC(=O)O` (stereo not shown) (as salt: salt): 105 to 111 °C; `CN(CCC(Oc1ccc(C(=O)c2nccs2)cc1)c1ccc(Cl)cc1)CC(=O)O` (stereo not shown): 80 to 100 °C.
Same read-out and setting: the figure for `CN(CCC(Oc1ccc(C(=O)c2ccncc2)cc1)c1ccc(Cl)cc1)CC(=O)O` (stereo not shown) is 72 to 82 °C; for `CN(CCC(Oc1ccc(C(=O)c2cc3ccccc3s2)cc1)c1ccc(Cl)cc1)CC(=O)O` (stereo not shown) (as salt: salt) it is 101 to 112 °C; for `CN(CCC(Oc1ccc(C(=O)c2cc(C(F)(F)F)cc(C(F)(F)F)c2)cc1)c1ccc(F)cc1)CC(=O)O` (stereo not shown) it is 60 to 75 °C.
With `CN(CCC(Oc1ccc(C(=O)c2ccc(F)cc2F)cc1)c1ccc(Cl)cc1)CC(=O)O` (stereo not shown) (as salt: salt), the melting point was in the range of 75 to 85 °C.
Regarding `CN(CCC(Oc1ccc(C(=O)c2ccsc2)cc1)c1ccc(F)cc1)CC(=O)O` (stereo not shown) (as salt: salt), the melting point was 65 to 75 °C.
On the same count and under the same terms, next, `COc1ccc(C(=O)c2ccc(OC(CCN(C)CC(=O)O)c3ccc(Cl)cc3)cc2)cc1` (stereo not shown) (as salt: salt): 60 to 70 °C; `CN(CCC(Oc1ccc(C(=O)c2ccc(Cl)cc2)cc1)c1ccc(Cl)cc1)CC(=O)O` (stereo not shown) (as salt: salt): 63 to 68 °C.
